Experimental data reported in patent publication US6780995B2, “Activated iododerivatives for the treatment of cancer and aids” (Isotechnika Inc., priority 1997, dated 2004).
Where two headings read alike, the source gives them in different places.

Experiments:
SK-OV-3 cells = experiment: IC50 assay, inhibition of cell proliferation and growth, SK-OV-3; format: cell-based, human
Experimental: (§1) Cell culture: The human cell lines were propagated under sterile conditions in RPMI 1640 (CellGrow) with 10% fetal bovine serum (Hyclone), 2 mM L-glutamine, and sodium bicarbonate (complete medium) and incubated at 37° C. in HEPA-filtered Sterilcult CO2 tissue culture incubators (Forma) with 5% CO^2 and 95% humidity (Table 1). The murine leukemia cell lines were propagated in Dulbecco's MEM media with 10% equine serum (Hyclone), 2 mM L-glutamine, and sodium bicarbonate (complete medium) and incubated as described. The cells were subcultured twice weekly and used in experiments. The culture was screened for mycoplasma contamination using GeneProbe™ (Fisher) and positive cultures were cured of contaminants over three passages using constant treatment with BM-Cyclin™ antibiotic combination (Boehringer Mannheim). Only cultures confirmed as mycoplasma free were used in testing compounds for anticellular activity.
(§2) The test compounds were stored at 4° C. under light protected conditions. The test compounds were weighed and dissolved in DMSO. The dissolved compounds were then serially diluted in warm medium (RPMI 1640 or Dulbecco's MEM) under constant mixing to minimize precipitation. The positive control drug doxorubicin was diluted in water followed by dilution in media to achieve a final concentration of 200 nM.
(§3) For all experiments, the cells were harvested and centrifuged to remove the media, and suspended in fresh completed medium. Samples were taken to determine cell density. The cell count was determined with a Coulter Model Z1 cell counter and viability was measured with propidium iodide staining followed by analysis on a Coulter EPPICS Elite Flow cytometer. The cell samples sere adjusted with complete medium to a density of 5×10^4/mL for adherent cell lines and 1×10^5/mL for suspension lines. Tissue culture cluster plates (96 well, cat. No. 3595 Costar for adherent human lines and cat No. 25850 Corning for murine leukemias) were seeded with 100 μL cells and incubated as described. Replicate groups of plates were set up for each line to accommodate the exposure options for single agents and combinations. For each dilution 8 wells (100 μL samples of cells) were treated with 100 μL of dosing solution one day after plating. Each cluster plate contained a cell control (8 wells, mock-treated with complete medium), a medium control (3 wells with medium used to subtract out signal generated by media conditions), and an air blank (1 well, for calibrating the plate reader).
(§4) Anticellular effects of the compounds for the adherent cell lines were assessed with neutral red dye. On the day of analysis, the media was removed from sample cell monolayers and replaced with 0.1 mL of neutral red solution (0.5% neutral red, HBSS:RPMI 1640 (1:1), 0.05 M HEPES, pH 7.2). After incubation of the samples at 37° C. for 1 hour the excess dye was removed with blotting and the monolayers were washed twice with 0.85% NaCl solution (0.1 mL per wash). The cell associated dye was extracted by adding 0.2 mL of a 0.1 M NaH2PO4:ethanol (1:1) solution/well followed by incubation for 1 hour at 35° C. The absorbency of neutral red in each monolayer was measured at 550 nm (620 nm reference beam) on a Denley Anthos 2001 microplate reader. The data were transferred via the ARCOM software capture program in Lotus 1-2-3 for processing.
(§5) In assays where technical difficulties due to crystalization of the neutral red occurred the crystal violet staining procedure was employed to measure the amount of cells were left on the plate. Crystal violet staining solution [0.5% crystal violet (w/v), 50% methanol (v/v), 45% saline (v/v), and 5% formalin (v/v)] were prepared on the day of staining. After the media was removed from the sample wells, two drops of crystal violet stain were added to each well and the samples were incubated at ambient temperature for 10 minutes. […]

SK-MEL-5 cells = experiment: IC50 assay, inhibition of cell proliferation and growth, SK-MEL-5; format: cell-based, human
Experimental: as §1, §2, §3, §4, §5

MCF7 cells = experiment: IC50 assay, inhibition of cell proliferation and growth, MCF7; format: cell-based, human
Experimental: as §1, §2, §3, §4, §5

RPMI 8226 cells = experiment: IC50 assay, inhibition of cell proliferation and growth, RPMI 8226; format: cell-based; conditions: Homo sapiens
Experimental: as §1, §2, §3
(§6) Using the procedures described above, concentrations of the Example compounds necessary to inhibit cell proliferation and growth by 50% (1C50 values) were determined in the test cell lines.

COLO 205 cells = experiment: IC50 assay, inhibition of cell proliferation and growth, COLO 205; format: cell-based, human
Experimental: as §1, §2, §3, §4, §5

M14 cells = experiment: IC50 assay, inhibition of cell proliferation and growth, M14; format: cell-based, human
Experimental: as §1, §2, §3, §4, §5

A549 cells = experiment: IC50 assay, inhibition of cell proliferation and growth, A549; format: cell-based, human
Experimental: as §1, §2, §3, §4, §5

B16 cells = experiment: IC50 assay, inhibition of cell proliferation and growth, B16; format: cell-based; conditions: B16 murine melanoma cell line, neutral red or crystal violet, read-out: IC50 Concentrations, B16
Experimental: as §1, §2, §3, §4, §5

L1210 cells = experiment: IC50 assay (XTT), inhibition of cell proliferation and growth, L1210; format: cell-based; conditions: L1210 murine leukemia cell line, XTT dye conversion, read-out: IC50 Concentrations, L1210
Experimental: as §1, §2, §3
(§7) Anticellular effects of the murine leukemia cell lines were assessed with the XTT dye conversion assay which is more suited to suspension cultures. On the day of analysis XTT[2,3-bis(2-methoxy-4-nitro-5-sulfophenyl)-5-[(phenylamino)carbenyl]-2H-tetrazolium hydroxide, inner salt, sodium salt (Sigma)] was weighed out and dissolved at 1 mg/mL in media. PMS (phenazine methosulfate) was prepared at 5 mM in PBS (phosphate buffered saline) and stored as a stock solution 4° C. The PMS was mixed with dissolved XTT to a final concentration of 0.025 mM. Sample wells were treated with 50 μL of the XTT solution and the plates were incubated for four hours at 37° C. to allow for conversion into the liquid soluble formazan product. After the incubation period the reaction was stopped by adding 10 μL of 10% SDS solution per well and the wells contents of each plate were mixed by agitation. The absorbancy of formazan in each monolayer was measured at 450 nm (620 nm reference beam) on a Denley Anthos 2001 microplate reader. The data were transferred via the ARCOM software capture program into Lotus 1-2-3 for processing.
as §6

P388 cells = experiment: IC50 assay (XTT), inhibition of cell proliferation and growth, P388; format: cell-based; conditions: P388 murine leukemia cell line, XTT dye conversion, read-out: IC50 Concentrations, P388
Experimental: as §1, §2, §3, §7, §6

[1] = Homo sapiens, SK-OV-3, read-out: IC50 Concentrations, SK-OV-3
[2] = Homo sapiens, SK-MEL-5, read-out: IC50 Concentrations, SK MEL-5
[3] = Homo sapiens, MCF7, read-out: IC50 Concentrations, MCF 7
[4] = RPMI-8226, read-out: IC50 Concentrations, RPM 18226
[5] = Homo sapiens, COLO 205, read-out: IC50 Concentrations, COLO 205
[6] = Homo sapiens, M14, read-out: IC50 Concentrations, M14
[7] = Homo sapiens, A549, read-out: IC50 Concentrations, A 549
[8] = SK-OV-3 ovarian adenocarcinoma cell line, neutral red or crystal violet, read-out: IC50 Concentrations, SK-OV-3
[9] = SK-MEL-5 melanoma cell line, neutral red or crystal violet, read-out: IC50 Concentrations, SK MEL-5
[10] = COLO 205 colon adenocarcinoma cell line, neutral red or crystal violet, read-out: IC50 Concentrations, COLO 205
[11] = M14 melanoma cell line, neutral red or crystal violet, read-out: IC50 Concentrations, M14
[12] = A549 bronchogenic cell line, neutral red or crystal violet, read-out: IC50 Concentrations, A 549
[13] = Homo sapiens, SK-OV-3 ovarian adenocarcinoma cell line, neutral red or crystal violet, read-out: IC50 Concentrations, SK-OV-3
[14] = Homo sapiens, SK-MEL-5 melanoma cell line, neutral red or crystal violet, read-out: IC50 Concentrations, SK MEL-5
[15] = Homo sapiens, MCF7 breast adenocarcinoma cell line, neutral red or crystal violet, read-out: IC50 Concentrations, MCF 7
[16] = RPMI 8226 myeloma cell line, read-out: IC50 Concentrations, RPM 18226
[17] = Homo sapiens, COLO 205 colon adenocarcinoma cell line, neutral red or crystal violet, read-out: IC50 Concentrations, COLO 205
[18] = Homo sapiens, M14 melanoma cell line, neutral red or crystal violet, read-out: IC50 Concentrations, M14
[19] = Homo sapiens, A549 bronchogenic cell line, neutral red or crystal violet, read-out: IC50 Concentrations, A 549

Compound	IC50 (SK-OV-3 cells; [13])	IC50 (SK-MEL-5 cells; [14])	IC50 (MCF7 cells; [15])	IC50 (B16 cells; Mus musculus)	IC50 (RPMI 8226 cells; [16])	IC50 (COLO 205 cells; [17])	IC50 (L1210 cells; Mus musculus)	IC50 (M14 cells; [18])	melting point	IC50 (A549 cells; [19])	IC50 (P388 cells; Mus musculus)	also measured
Cc1csc(N(C(=O)c2cc([N+](=O)[O-])ccc2I)C(=O)c2cc([N+](=O)[O-])ccc2I)n1 [Ref. No. 20]												IC50 (SK-OV-3 cells; [1]): 10.8 µM; IC50 (SK-MEL-5 cells; [2]): 47.1 µM; IC50 (MCF7 cells; [3]): 36.1 µM; IC50 (RPMI 8226 cells; [4]): 13.7 µM; IC50 (COLO 205 cells; [5]): 42.6 µM; IC50 (M14 cells; [6]): 15.1 µM; IC50 (A549 cells; [7]): 48.4 µM
O=C(NCCCCCCNC(=O)c1cc([N+](=O)[O-])ccc1I)c1cc([N+](=O)[O-])ccc1I [Ref. No. 24, 1,6-Di-(2′-Iodo-5′-Nitro-Benzamido)-Hexane]												IC50 (SK-OV-3 cells; [1]): > 500 µM; IC50 (SK-MEL-5 cells; [2]): > 500 µM; IC50 (MCF7 cells; [3]): > 500 µM; IC50 (RPMI 8226 cells; [4]): > 500 µM; IC50 (COLO 205 cells; [5]): > 500 µM; IC50 (M14 cells; [6]): > 500 µM; IC50 (A549 cells; [7]): > 500 µM
N-(4′-Pyridyl)-2-Iodo-5-Nitrophenyl Hydrazide [Ref. No. 10]												IC50 (SK-OV-3 cells; [8]): 361 µM; IC50 (SK-MEL-5 cells; [9]): > 500 µM; IC50 (MCF7 cells; MCF7 breast adenocarcinoma cell line, neutral red or crystal violet, read-out: IC50 Concentrations, MCF 7): > 500 µM; IC50 (B16 cells): 301 µM; IC50 (COLO 205 cells; [10]): 441 µM; IC50 (L1210 cells): > 18.5 µM; IC50 (M14 cells; [11]): > 500 µM; IC50 (A549 cells; [12]): > 500 µM; IC50 (P388 cells): > 18.5 µM
O=C(NC1=NCCS1)c1cc([N+](=O)[O-])ccc1I [Ref. No. 23, 2-(2′-Iodo-5′-Nitro-Benzamido)-2-Thiazoline]	> 500 µM	125 µM	162 µM	129 µM	237 µM	81.9 µM	> 500 µM	150 µM	176 to 179 °C	> 500 µM	353 µM	
N-(3′-Pyridyl)-2-Iodo-5-Nitrophenyl Hydrazide [Ref. No. 11]												IC50 (SK-OV-3 cells; [8]): 381 µM; IC50 (SK-MEL-5 cells; [9]): 413 µM; IC50 (B16 cells): 129 µM; IC50 (COLO 205 cells; [10]): 111 µM; IC50 (L1210 cells): ≥ 55.6 µM; IC50 (M14 cells; [11]): 467 µM; IC50 (A549 cells; [12]): 387 µM; IC50 (P388 cells): > 55.6 µM
Cc1csc(NC(=O)c2cc([N+](=O)[O-])ccc2I)n1 [Ref. No. 21, 2-(2′-Iodo-5′-Nitro-Benzamido)-4-Methyl-Thiazole]	15.7 µM	15 µM	12.5 µM	5.13 µM	3.33 µM	5.59 µM	12.8 µM	13.2 µM		43.7 µM	3.44 µM	
CCOC(=O)c1sc(NC(=O)c2cc([N+](=O)[O-])ccc2I)nc1C [Ref. No. 16]	41.2 µM	41.7 µM	34.3 µM	7.93 µM	10.6 µM	31.2 µM	41.1 µM	37.3 µM	211 to 212 °C	30.1 µM	11.2 µM	
O=C(Nc1nnc(C(F)(F)F)s1)c1cc([N+](=O)[O-])ccc1I [Ref. No. 18]	73 µM	28.8 µM	24 µM	20.8 µM	16.7 µM	41.3 µM	28.4 µM	27.3 µM	219 to 221 °C	15.7 µM	12.8 µM	
Cc1cnc(NC(=O)c2cc([N+](=O)[O-])ccc2I)s1 [Ref. No. 22, 2(2′-Iodo-5′-Nitro-Benzamido)-5-Methyl-Thiazole]	16.1 µM	15.3 µM	14.8 µM	6.2 µM	12.7 µM	13.5 µM	12.8 µM	14.5 µM		45.2 µM	3.64 µM	
Cc1ccc(-c2csc(NC(=O)c3cc([N+](=O)[O-])ccc3I)n2)cc1 [Ref. No. 19, 2(2′-Iodo-5′-Nitro-Benzamido)-4-tolyl-Thiazole]	33.2 µM	51.3 µM	35.5 µM	5.15 µM	11.8 µM	18.2 µM	13.5 µM	14.4 µM	244 to 248 °C	163 µM	2.43 µM	
